In patent US4785080A, “Labeled analytes” (Baker Instruments Corporation, priority 1985, dated 1988):
Where “and” joins values, the source holds several entries; their conditions need not be identical. Identical values can stand only once.

Assays:
[1] = system: thyroxine antibody; experiment: Reference displacement curve, thyroxine vs thyroxine-S-peptide, colorimetric, CentrifiChem 500 (Example XVIII); assay type: binding; details: for Rate: antibody
Procedure: This Example illustrates the generation of a reference displacement curve for determination of unknown concentrations of the analyte thyroxine where a colorimetric substrate is utilized along with a centrifugal fast analyzer.
(§1) The following reagents were utilized:
a. Thyroxine S-peptide labeled analyte: Material prepared in the manner described in Examples I-IV was diluted by a factor of 1:400 with 0.1M sodium acetate buffer of pH 5.0;
b. Antibody: Antiserum was diluted by a factor of 1:300 with 0.1M sodium acetate buffer of pH 5.0;
c. Substrate: Uridine 3'-α-naphthyl phosphate;
d. S-protein: Sigma purified commercial material was brought to 2.5×10^-6 M in 0.1M sodium acetate buffer;
e. Dye: The 1,5-naphthalene disulfonic acid stabilized salt of diazo-psulfanilic acid (25 mg.) was dissolved in 1 ml of 0.1N HCl;
f. Standards: Thyroxine standards at concentrations of 0, 40, 80, 120, and 200 ng/ml were made up in a human serum containing solution.
The following settings were utilized on the CentrifiChem° 500 centrifugal fast analyzer: rotor temp, 30°; filter, 520 nm; To, 10 sec; t, 2 min; ABS 1.0 u; Blank, hold; test mode, Term; Print out, ABS; conc. factor, 0; test code 0.
The standard (20 ul), antibody and polypeptide labeled analyte were pipetted into the sample wells of channels 3 to 14 of the transfer disc. A mixture of 5 ul of the dye, 300 ul of substrate, and 20 ul of S-protein, was pipetted into the corresponding reagent wells along with 10 ul of acetate buffer. The loaded transfer disc was placed on the rotor, and the instrument was spun. […]

[2] = system: thyroxine antibody; experiment: Effect of pH on immunoreactivity in the assay of thyroxine; assay type: binding; details: pH from 5 to about 7
Description: The effect of pH on the assay should likewise be considered. […] While the naphthyl phosphate substrate described herein may be suitably used at a pH of 5, the preferred umbelliferone-type substrate needs a pH in the range of about 6 to about 8 for useful operation in the […] mode. Sensitivities in pH can perhaps be overcome by changing the charge characteristics of the labeled analyte, as by incorporating more basic groups on the analyte molecule. Also, the use of a more avid antisera for thyroxine should be helpful. It may also be helpful to modify the linking chemistry (e.g.--the site, type of linking groups).

[3] = system: thyroxine antibody; experiment: Reference displacement curve, thyroxine, interconverted pipetting of labeled analyte and S-protein (Example XIX); assay type: binding; details: for 10^3 Rate: antibody
Description: This Example illustrates the interconversion of the thyroxine labeled analyte and S-protein where the S-protein is pipetted into the sample well and the labeled analyte is pipetted into the reagent well, in contrast to the preceding example where the reverse arrangement was used. Additionally, this Example illustrates the formulation of two reagent solutions for direct pipetting into the sample and reagent wells of the transfer disc using an automatic pipetter (Centrifichem® model P-500 pipetter). Thirdly, this Example illustrates the enhancement of dynamic range in relation to that obtained in Example XVIII by increasing the concentrations of the antibody and S-protein.
as §1
a. Thyroxine-S-peptide labeled analyte: Material prepared in the manner described in Examples I-IV was diluted by a factor of 1:50 with 0.1M sodium acetate buffer of pH 5.0;
b. Antibody: Antiserum was diluted by a factor of 1:30 with 0.1M sodium acetate buffer of pH 5.0;
c. Substrate: Uridine 3'-(α-naphthyl phosphate);
d. S-protein: Sigma purified commercial material was brought to […] in 0.1M sodium acetate buffer;
e. Dye: As in Example XVIII.
f. Standards: As in Example XVIII.
A mixture consisting of 500 ul of the substrate, 100 ul of the dye, and 250 ul of the conjugate was prepared. (Reagent A)
A second solution (Reagent B) was prepared by combining 300 ul of the antibody, reagent, 300 ul of the S-protein and 150 ul of 0.1N. sodium acetate buffer.
The following protocol was utilized for the assay: The standard (20 ul) and 65 ul of de-ionized H2 O were delivered to the sample well of the transfer disc by the sample probe of the P-500 pipetter. The reagent B (50 ul) was delivered to the sample well with the second reagent probe of the pipetter. Reagent A (250 ul) was delivered to the reagent well of the transfer disc with the first reagent probe of the pipetter. All three pipetting operations were done simultaneously in one cycle. The transfer disc was then placed on the CentrifiChem® 400 for analysis. The following settings were utilized for the CentrifiChem®: temperature, 30°; filter, 520 nm; T0, 10 seconds; T, 2 minutes; Abs, 3.0 u; Blank, hold; test mode, Term; print out, Abs; concentration factor, 0; test code, 0.

[4] = system: thyroxine antibody; experiment: Reference displacement curve, thyroxine vs thyroxine-S-peptide, fluorogenic substrate (Example XVII); assay type: binding; details: for Rate: antibody
Procedure: This Example illustrates the generation of a reference displacement curve using thyroxine-S peptide as the labeled analyte and 5'-0-acetyl uridine-3'-(4 methylumbelliferone-7-yl phosphate) as a fluorogenic substrate. The following reagents were prepared:
a. Thyroxine-S-Peptide labeled analyte: Material prepared as described in Examples I-IV, was diluted by a factor of 1:2000 in 0.1M sodium acetate buffer of pH 5.0.
b. Antibody: Antiserum was diluted by a factor of 1:2000 using 0.1M sodium acetate buffer of pH 5.0;
c. S-Protein: Purified material was brought to 2×10^-5 M using 0.1M sodium acetate buffer of pH 5.0;
d. Substrate: Seventeen milligrams of 5'-0-acetyl-2'-0-(tetrahydropyran-2-yl) uridine 3'-(4 methylumbelliferone-7-yl ammonium phosphate was stirred in 0.01HCl for 45 minutes and then extracted with ether. Fifty ml of 0.01M sodium acetate buffer, of pH 5, was then added to give the substrate solution;
e. Thyroxine antibody standards: Thyroxine solutions were freshly prepared to provide thyroxine concentrations of 0 ng/ml, 30 ng/ml, 60 ng/ml, 120 ng/ml, and 240 ng/ml in an aqueous medium containing human serum.
Seventy-five microliters of the standard thyroxine solution was pretreated with 20 ul of 0.5N sodium hydroxide […] at room temperature. One hundred microliters of the antibody and 300 ul of thyroxine-S peptide labeled analyte were then added, and the mixture was incubated for 30 minutes at room temperature. A mixture consisting of 1.8 ml of substrate and 100 ul S-protein was then added. After incubating for 5 minutes, the rate of increase of fluorescence was monitored over a 10 minute period. An Aminco Filter Fluorometer (Model J4-7440) equipped with an automatic 20 sample changer (Model 047-67059) was utilized with excitation at 325 nm and emission at 440 nm. The data points were taken for each sample at times 0, 5, and 10 minutes by an automatic data acquisition system. Table 7 summarizes the results:
In order to obtain a displacement curve, the data for duplicate points are averaged; and the % bound fraction (% B/Bo) is calculated from the equation: [formula] where Rate Bn is the rate corresponding to a non-zero standard and Rate Bo is that corresponding to the zero standard solution.

[5] = system: RNase 1-118; details: combined with RNase 1-118; cited from earlier work

With `N[C@@H](Cc1cc(I)c(Oc2cc(I)c(O)c(I)c2)c(I)c1)C(=O)O` [thyroxine] the “rate response between the 0 standard and 200 ng/ml standard” value ([1]; 0 to 200 ng/ml) was 3.5 m.a.u./min, the Rate ([1]; standard 40 ng/ml) was 0.0208 a.u./min and 0.0222 a.u./min and the Rate ([1]; standard 80 ng/ml) was 0.0217 a.u./min and 0.0218 a.u./min. For the same compound, the Rate ([1]; standard 120 ng/ml) was 0.0224 a.u./min, the Rate ([1]; standard 200 ng/ml) was 0.0230 a.u./min and the “immunoreactivity as the pH is increased” value [2] was “immunoreactivity is decreased”. The “spread in rate covering the range of standard concentrations” value ([3]; 0-200 ng/ml) was 12 milliabsorbance units/min, the “spread in rate relative to Example XVIII” value ([3]; 0-200 ng/ml) was “about 4 times” and the “10^3 Rate” value ([3]; standard 40 ng/ml) was 57.8 a.u./min. and 58.3 a.u./min. For the same compound, the “10^3 Rate” value ([3]; standard 80 ng/ml) was 60.4 a.u./min. and 59.5 a.u./min, the “10^3 Rate” value ([3]; standard 120 ng/ml) was 62.0 a.u./min. and 64.8 a.u./min and the “10^3 Rate” value ([3]; standard 200 ng/ml) was 65.3 a.u./min. The Rate ([4]; thyroxine standard 30 ng/ml) was 13.00 mv/min and 13.57 mv/min, the Rate ([4]; thyroxine standard 60 ng/ml) was 13.30 mv/min and 13.40 mv/min and the Rate ([4]; thyroxine standard 120 ng/ml) was 13.68 mv/min. For the same compound, the Rate ([4]; thyroxine standard 240 ng/ml) was 14.15 mv/min and 14.17 mv/min, the “% B/B0 (% bound fraction)” value ([4]; standard 30 ng/ml) was 67% and the “Rate (average of duplicates)” value ([4]; standard 30 ng/ml) was 13.28 mv/min. For the same compound, the “% B/B0 (% bound fraction)” value ([4]; standard 60 ng/ml) was 64%, the “Rate (average of duplicates)” value ([4]; standard 60 ng/ml) was 13.35 mv/min and the “% B/B0 (% bound fraction)” value ([4]; standard 120 ng/ml) was 51%. For the same compound, the “Rate (average of duplicates)” value ([4]; standard 120 ng/ml) was 13.68 mv/min, the “% B/B0 (% bound fraction)” value ([4]; standard 240 ng/ml) was 32% and the “Rate (average of duplicates)” value ([4]; standard 240 ng/ml) was 14.16 mv/min.

In the case of “tetradecapeptide 111 to 124: synthesized tetradecapeptide corresponding to residues 111 to 124 of the original RNase (EGNPYVPVHFDASV; UniProt P61823 137-150, looked up, fragment)”, the “recovery of catalytic activity of RNase” value [5] is given as “essentially the full catalytic activity of RNase was recovered”.
